Experimental data taken from ChEMBL document CHEMBL1201862, “PubChem BioAssay data set” (2004).
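Protocol summary: plate cells (96-well), add compound at 5 concentrations, incubate 48 h, interpolate endpoints linearly. GI50 marks 50% less growth.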 Active and inactive are the calls of the source. No stated cut-off is given here; in the data, active = GI50 up to about 1.1 µM and inactive = higher.

What was measured:
Test in all cases: inhibition of tumour cell growth, NCI panel, 48 h
HCC 2998 = system: HCC 2998
MOLT-4 = system: MOLT-4
SNB-75 = system: SNB-75
OVCAR-8 = system: OVCAR-8
ACHN = system: ACHN
A498 = system: A498
NCI-H460 = system: NCI-H460
M14 = system: M14
Malme-3M = system: Malme-3M
SN12C = system: SN12C
IGROV-1 = system: IGROV-1
HOP-62 = system: HOP-62
UACC-257 = system: UACC-257
SK-OV-3 = system: SK-OV-3
SF-539 = system: SF-539
LOX IMVI = system: LOX IMVI
SW-620 = system: SW-620
NCI-H226 = system: NCI-H226

SMILES | GI50 (HCC 2998) | GI50 (MOLT-4) | GI50 (SNB-75) | GI50 (OVCAR-8) | GI50 (ACHN) | GI50 (A498) | GI50 (NCI-H460) | GI50 (M14) | GI50 (Malme-3M) | GI50 (SN12C) | GI50 (IGROV-1) | GI50 (HOP-62) | GI50 (UACC-257) | GI50 (SK-OV-3) | GI50 (SF-539) | GI50 (LOX IMVI) | GI50 (SW-620) | GI50 (NCI-H226)
C=C=C[P+](c1ccccc1)(c1ccccc1)c1ccccc1 | 42.6 µM (inactive) | 2.6 µM (inactive) | 8.79 µM (inactive) | 3.13 µM (inactive) | 14.5 µM (inactive) | 93.8 µM (inactive) | 18.2 µM (inactive) | 6.05 µM (inactive) | 13.2 µM (inactive) | 3.78 µM (inactive) | 31.5 µM (inactive) | 53.1 µM (inactive) | 7.06 µM (inactive) | 45.6 µM (inactive) | 14.8 µM (inactive) | – | – | –
CN(C)[C@@H]1C(O)=C(C(N)=O)C(=O)[C@@]2(O)C(O)=C3C(=O)c4c(O)cccc4C[C@H]3C[C@@H]12 | 1.78 µM (inactive) | 2.45 µM (inactive) | 1.61 µM (inactive) | 2.89 µM (inactive) | 3.74 µM (inactive) | 2.2 µM (inactive) | 2.18 µM (inactive) | 1.99 µM (inactive) | 1.51 µM (inactive) | 3.44 µM (inactive) | 2.1 µM (inactive) | 2 µM (inactive) | – | 1.9 µM (inactive) | 2 µM (inactive) | 1.91 µM (inactive) | 3.11 µM (inactive) | –
CSc1nc2c(nc(C)c(=O)n2C2OCC(OC(C)=O)C(OC(C)=O)C2OC(C)=O)c(=O)[nH]1 (stereo not drawn) | > 100 µM (inactive) | > 100 µM (inactive) | > 100 µM (inactive) | > 100 µM (inactive) | > 100 µM (inactive) | > 100 µM (inactive) | > 100 µM (inactive) | > 100 µM (inactive) | > 100 µM (inactive) | > 100 µM (inactive) | > 100 µM (inactive) | > 100 µM (inactive) | > 100 µM (inactive) | > 100 µM (inactive) | – | > 100 µM (inactive) | > 100 µM (inactive) | –
COc1ccccc1/C=C1\C(=O)N(C(=O)Cc2ccccc2)N=C1C | > 100 µM (inactive) | > 100 µM (inactive) | > 100 µM (inactive) | > 100 µM (inactive) | > 100 µM (inactive) | – | > 100 µM (inactive) | > 100 µM (inactive) | > 100 µM (inactive) | > 100 µM (inactive) | – | > 100 µM (inactive) | > 100 µM (inactive) | – | > 100 µM (inactive) | > 100 µM (inactive) | > 100 µM (inactive) | > 100 µM (inactive)
Cc1nc(C(N)=S)sc1C(=O)CC(=O)C(=O)Nc1ccccc1[N+](=O)[O-] | > 100 µM (inactive) | > 100 µM (inactive) | > 100 µM (inactive) | > 100 µM (inactive) | > 100 µM (inactive) | > 100 µM (inactive) | > 100 µM (inactive) | > 100 µM (inactive) | > 100 µM (inactive) | – | > 100 µM (inactive) | > 100 µM (inactive) | > 100 µM (inactive) | > 100 µM (inactive) | > 100 µM (inactive) | > 100 µM (inactive) | > 100 µM (inactive) | –
COc1nc(=O)n(COC(CO)CN2C(=O)c3ccccc3C2=O)cc1Cc1cccc(OCc2ccccc2)c1 (stereo not drawn) | 20.7 µM (inactive) | 21.2 µM (inactive) | 15.5 µM (inactive) | 34.5 µM (inactive) | 23.7 µM (inactive) | – | – | 20.4 µM (inactive) | – | 22 µM (inactive) | 24.8 µM (inactive) | – | – | 26.5 µM (inactive) | 16.6 µM (inactive) | 20.1 µM (inactive) | 42.7 µM (inactive) | 17.4 µM (inactive)
COc1ccc(C2=NN(c3ccccc3)C[N+](c3ccc(OC)cc3)=N2)cc1 | 37.8 µM (inactive) | 20.3 µM (inactive) | – | 85.7 µM (inactive) | 30.3 µM (inactive) | > 100 µM (inactive) | 47.5 µM (inactive) | – | 21.2 µM (inactive) | 54.1 µM (inactive) | 21.3 µM (inactive) | 66.1 µM (inactive) | 76.2 µM (inactive) | – | – | 17.6 µM (inactive) | 24.5 µM (inactive) | 15.7 µM (inactive)
O=C(Cc1ccccc1)NN1C(=O)C(Cl)C1c1ccc([N+](=O)[O-])cc1 (stereo not drawn) | > 100 µM (inactive) | 53.2 µM (inactive) | 93.8 µM (inactive) | > 100 µM (inactive) | > 100 µM (inactive) | – | > 100 µM (inactive) | > 100 µM (inactive) | > 100 µM (inactive) | 96.4 µM (inactive) | > 100 µM (inactive) | > 100 µM (inactive) | 76.4 µM (inactive) | > 100 µM (inactive) | – | 87.5 µM (inactive) | > 100 µM (inactive) | > 100 µM (inactive)
COc1cccc(Cc2c3cc(OC)ccc3cc[n+]2C)c1 | 87.9 µM (inactive) | > 100 µM (inactive) | 32.8 µM (inactive) | 73.6 µM (inactive) | > 100 µM (inactive) | > 100 µM (inactive) | > 100 µM (inactive) | 67.5 µM (inactive) | > 100 µM (inactive) | 32.6 µM (inactive) | – | > 100 µM (inactive) | 21.4 µM (inactive) | – | – | – | > 100 µM (inactive) | –
C/C=C(\NC(=O)C(CCCCN)NC(=O)C(C)NC(=O)C1CSC(C)C(NC(=O)C2CSCC(NC(=O)C(C)NC(=O)C(N)C(C)CC)C(=O)NC(CCCCN)C(=O)NC(Cc3ccccc3)C(=O)NC(CC(C)C)C(=O)N2)C(=O)N2CCCC2C(=O)NCC(=O)N1)C(=O)NCC(=O)NC1CSCC2NC(=O)C(Cc3ccc(O)cc3)NC(=O)C(CSC=CNC2=O)NC(=O)C(CC(N)=O)NC(=O)C(Cc2ccccc2)NC1=O (stereo not drawn) | > 100 µM (inactive) | > 100 µM (inactive) | 20.3 µM (inactive) | > 100 µM (inactive) | 65 µM (inactive) | – | 75.3 µM (inactive) | > 100 µM (inactive) | – | > 100 µM (inactive) | > 100 µM (inactive) | < 0.01 µM (active) | – | – | > 100 µM (inactive) | > 100 µM (inactive) | > 100 µM (inactive) | –
Nc1nnc(N)n1N | > 100 µM (inactive) | > 100 µM (inactive) | > 100 µM (inactive) | – | > 100 µM (inactive) | – | > 100 µM (inactive) | > 100 µM (inactive) | > 100 µM (inactive) | – | > 100 µM (inactive) | > 100 µM (inactive) | > 100 µM (inactive) | > 100 µM (inactive) | > 100 µM (inactive) | > 100 µM (inactive) | > 100 µM (inactive) | > 100 µM (inactive)
COc1ccc(/C(=N/NC(N)=O)C2(O)C(=O)Nc3ccc([N+](=O)[O-])cc32)cc1 (stereo not drawn) | 37.3 µM (inactive) | 19.6 µM (inactive) | 20.6 µM (inactive) | 22.3 µM (inactive) | 16.6 µM (inactive) | 29.2 µM (inactive) | 19.3 µM (inactive) | 15.3 µM (inactive) | > 10 µM (inactive) | > 10 µM (inactive) | 31 µM (inactive) | 28.2 µM (inactive) | 21.1 µM (inactive) | > 100 µM (inactive) | 15.7 µM (inactive) | – | 22.8 µM (inactive) | 45.7 µM (inactive)
Cc1c(C(=O)CC(=O)C(=O)Nc2ccccc2C(F)(F)F)[n+]([O-])c2ccccc2[n+]1[O-] | 13.4 µM (inactive) | – | – | 18.2 µM (inactive) | 62.2 µM (inactive) | > 100 µM (inactive) | 21.3 µM (inactive) | 15.2 µM (inactive) | 20.6 µM (inactive) | 22.2 µM (inactive) | 18 µM (inactive) | 44 µM (inactive) | 18.4 µM (inactive) | 25.5 µM (inactive) | 23.2 µM (inactive) | 18.7 µM (inactive) | 16.2 µM (inactive) | > 100 µM (inactive)
COC(=O)c1ccc(CS(=O)(=O)c2ccccc2)cc1 | > 100 µM (inactive) | > 100 µM (inactive) | 48.3 µM (inactive) | > 100 µM (inactive) | > 100 µM (inactive) | – | 66.1 µM (inactive) | 49.8 µM (inactive) | > 100 µM (inactive) | > 100 µM (inactive) | > 100 µM (inactive) | > 100 µM (inactive) | > 100 µM (inactive) | > 100 µM (inactive) | > 100 µM (inactive) | 74.3 µM (inactive) | 45.1 µM (inactive) | > 100 µM (inactive)
CCOC(=O)Cn1c(=O)n(C)c(=O)c2[nH]cnc21 | – | > 100 µM (inactive) | > 100 µM (inactive) | > 100 µM (inactive) | > 100 µM (inactive) | > 100 µM (inactive) | > 100 µM (inactive) | > 100 µM (inactive) | > 100 µM (inactive) | > 100 µM (inactive) | > 100 µM (inactive) | > 100 µM (inactive) | – | > 100 µM (inactive) | > 100 µM (inactive) | – | > 100 µM (inactive) | –
N#Cc1cccc(N2C(=O)c3ccc(C(=O)c4ccc5c(c4)C(=O)N(c4cccc(C#N)c4)C5=O)cc3C2=O)c1 | – | > 100 µM (inactive) | 35.6 µM (inactive) | > 100 µM (inactive) | – | > 100 µM (inactive) | > 100 µM (inactive) | > 100 µM (inactive) | > 100 µM (inactive) | > 100 µM (inactive) | > 100 µM (inactive) | > 100 µM (inactive) | > 100 µM (inactive) | > 100 µM (inactive) | > 100 µM (inactive) | > 100 µM (inactive) | > 100 µM (inactive) | > 100 µM (inactive)
Brc1ccc(C[N+]23CN4CN(CN(C4)C2)C3)cc1 | 47.1 µM (inactive) | 20.5 µM (inactive) | > 100 µM (inactive) | 28.3 µM (inactive) | 44.6 µM (inactive) | – | 28.3 µM (inactive) | 16.9 µM (inactive) | 26.2 µM (inactive) | 24 µM (inactive) | > 100 µM (inactive) | > 100 µM (inactive) | 30.5 µM (inactive) | > 100 µM (inactive) | 40.3 µM (inactive) | 18.8 µM (inactive) | 22.8 µM (inactive) | –
